The record followed here is US4395399A, “Glycopeptides and method for preparing same” (Institut Bioorganicheskoi Khimii Imeni M.M. Shemyakina …, priority 1977, dated 1983).

Like-named read-outs stand apart in the source and are kept apart here. Where a SMILES comes first, the peptide text is derived from it. [ ]: non-standard residue; d: D form.

This data set relates to 8-day Krocker sarcoma (S-180). The following applies: for Necrotic reaction shown after 24 h, number of animals / Death of animals / Inhibition of the tumor growth, % of the control: intravenous; for Necrotic reaction shown after 24 h, number of animals: mice with 8-day sarcoma S-180, 24 h; for Death of animals / Necrosis caused by constituent components of the glycopeptides: mice with sarcoma S-180; for Inhibition of the tumor growth, % of the control: tumor volume or weight after 4-5 days.

Setting [1] is: single intravenous dose 100 mg/kg.

On to `CC(=O)N[C@H]1C(O)O[C@H](CO)[C@@H](O)[C@@H]1O[C@H](C)C(=O)O` (stereo partly shown) [VII, N-acetylmuramic acid], for which the “Necrosis caused by constituent components of the glycopeptides” value (shortened to “Necrosis caused”) is “not caused”. Besides, for the setting “dose 100 mg/kg”, the “Necrotic reaction shown after 24 h, number of animals” value (“Necrotic reaction shown after 24 h” below) is 0/8; the Death of animals is 0; the “Inhibition of the tumor growth, % of the control” value (“Inhibition … % of the control” below) is 37 % of the control. For the same compound, where the note is “dose 250 mg/kg”, the “Necrotic reaction shown after 24 h” value is reported as 0/8; the Death of animals was found to be 25; the “Inhibition … % of the control” value is given as 52 % of the control.

Regarding `CC(=O)N[C@H]1C(O[C@H]2[C@H](O[C@H](C)C(=O)O)[C@@H](NC(C)=O)C(O)O[C@@H]2CO)O[C@H](CO)[C@@H](O)[C@@H]1O` (stereo partly shown) [VIII, N-acetylglucosaminyl/1→4/N-acetylmuramic acid], the “Necrosis caused” value is “not caused”. Further, under “dose 100 mg/kg”, the “Necrotic reaction shown after 24 h” value was 0/10; the Death of animals came to 0; the “Inhibition … % of the control” value is listed as 0 % of the control. In addition, under “dose 250 mg/kg”, the “Necrotic reaction shown after 24 h” value is 0/10; the Death of animals is 0; the “Inhibition … % of the control” value is 0 % of the control.

Regarding “N-acetyl-glucosaminyl/1→4/N-acetylmuramylalanine [Compound I]”, under “dose 50 mg/kg”, the “Necrotic reaction shown after 24 h” value is recorded as 2/5; the Death of animals was found to be 0; the “Inhibition … % of the control” value is recorded as 17 % of the control. Moreover, where the note is “dose 100 mg/kg”, the “Necrotic reaction shown after 24 h” value is reported as 3/5; the Death of animals is 0; the “Inhibition … % of the control” value was 19 % of the control.

`CC(=O)NC1C(OC2C(CO)OC(O)C(NC(C)=O)C2OC(C)C(=O)NC(C)C(=O)NC(CCC(=O)O)C(=O)O)OC(CO)C(O)C1O` [III, N-acetylglucosaminyl/1→4/N-acetylmuramyl-alanyl-D-glutamic acid]: the “Necrotic reaction shown after 24 h” value (dose 50 mg/kg) was 4/10 and the “Necrotic reaction shown after 24 h” value (dose 100 mg/kg) is listed as 3/5.

Take “/1→4/-bis-[N-acetylglucosaminyl/1→4/N-acetylmuramyl-alanyl-D- isoglutamine] [V]”: under “dose 50 mg/kg”, the “Necrotic reaction shown after 24 h” value is 3/5; the Death of animals amounted to 0; the “Inhibition … % of the control” value is given as 66 % of the control.

In the case of `C[C@H](N)C(=O)N[C@H](CCC(=O)O)C(N)=O` [X, Ala-D-Glu-NH2] (H-Ala-[dE]-NH2), the “Necrosis caused” value is given as “not caused”. Besides, for the setting “dose 100 mg/kg”, the “Necrotic reaction shown after 24 h” value was 0/10; the Death of animals stood at 0; the “Inhibition … % of the control” value was “+28 % of the control”.

In the case of `CC(=O)NC1C(OC2C(CO)OC(O)C(NC(C)=O)C2OC(C)C(=O)NC(C)C(=O)NC(CCC(=O)O)C(N)=O)OC(CO)C(O)C1O` [Compound II, N-acetylglucosaminyl/1→4/N-acetylmuramyl-alanyl-D-isoglutamine], where the note is “dose 50 mg/kg”, the “Necrotic reaction shown after 24 h” value was 8/10; the Death of animals is reported as 0; the “Inhibition … % of the control” value is 12 % of the control. For the same compound, for the setting “dose 100 mg/kg”, the “Necrotic reaction shown after 24 h” value is 4/5; the Death of animals was 0; the “Inhibition … % of the control” value is recorded as 70 % of the control. Under setting [1], the Hemopoiesis result is on record as “not inhibited”, the Number of leukocytes entry is “substantially increased” and the Signs of toxicity result is “no signs of toxicity are noticed”. Moreover, the “Test animals with selective necrosis of the tumor tissue covering substantially the entire tumor” value (single intravenous dose 100 mg/kg, 24 hours after administration) is recorded as “four out of five”. Besides, the “Inhibition of the growth of the malignant tumor as compared to the control animals” value (single intravenous dose 100 mg/kg, after 5 days) was 70%.

As for “Amide of N^ε [Alanyl-D-glutamyl-D-iso-asparaginyl]-lysyl-D-alanine [XII]”, where the note is “dose 250 mg/kg”, the “Necrotic reaction shown after 24 h” value is 0/5 and the “Inhibition … % of the control” value is 0 % of the control.

For “amide of N^ε -[N-acetylglucosaminyl/1→4/N-acetylmuramyl-alanyl-D-glutamyl-D-iso- asparaginyl]-lysyl-D-alanine [IV]”, the “Necrotic reaction shown after 24 h” value reads like this: (dose 50 mg/kg) 3/5; (dose 100 mg/kg) 3/5. The “Inhibition … % of the control” value was 23 % of the control (dose 50 mg/kg) and 41 % of the control (dose 100 mg/kg).

`C[C@H](N)C(=O)N[C@H](CCC(=O)O)C(=O)O` [XI, Ala-D-Glu] (H-Ala-[dE]-OH): the “Necrosis caused” value is given as “not caused”. Under “dose 100 mg/kg”, the “Necrotic reaction shown after 24 h” value was 0/8; the Death of animals turned out to be 0; the “Inhibition … % of the control” value is listed as 37.3 % of the control.

Turning to `CC(=O)N[C@H]1C(O)O[C@H](CO)[C@@H](O)[C@@H]1O` (stereo partly shown) [VI, N-acetylglucosamine], the “Necrosis caused” value is on record as “not caused”. Also, where the note is “dose 250 mg/kg”, the “Necrotic reaction shown after 24 h” value is listed as 0.5; the Death of animals is on record as 0; the “Inhibition … % of the control” value is on record as 0 % of the control.

On to `CC(=O)N[C@H]1C(O[C@H]2[C@H](O[C@H](C)C(=O)O)[C@@H](NC(C)=O)C(O[C@H]3[C@H](O)[C@@H](NC(C)=O)C(O[C@H]4[C@H](O[C@H](C)C(=O)O)[C@@H](NC(C)=O)C(O)O[C@@H]4CO)O[C@@H]3CO)O[C@@H]2CO)O[C@H](CO)[C@@H](O)[C@@H]1O` (stereo partly shown) [IX, N-acetylglucosaminyl /1→4/-N-acetylmuramyl/1→4/N-acetylglucosaminyl/1→4/N- acetylmuramic acid], for which the “Necrosis caused” value was “not caused”. In addition, under “dose 250 mg/kg”, the “Necrotic reaction shown after 24 h” value was 0/10; the Death of animals came out at 0; the “Inhibition … % of the control” value is on record as 0 % of the control.
